# Assay results from US12606533B2, “3-phenylpropylamine derivative” (DAIICHI SANKYO COMPANY, LIMITED, priority 2023, dated 2026).
# Where a name gives a salt, the structure may show the parent alone.
# Assays:
# CYP11A1 = test: Changes in SF1 target gene expression for NCI-H295R: CYP11A1 mRNA (qPCR); format: cell-based; conditions: Homo sapiens, NCI-H295R cells, 24 hr
# Protocol: (§1) NCI-H295R cells were cultured in a 5% CO2 incubator at 37° C. using DMEM/F12 medium (Thermo Fisher Scientific Inc.) containing 2.5% Nu-Serum (registered trademark) Growth Medium Supplement (Corning) and 1% Corning ITS+ Premix Universal Culture Supplement (Corning). The DMSO solution of each compound was serially diluted with DMSO using a D300e Digital Dispenser (TECAN), and the compounds were added to a 96-well plate (FALCON). NCI-H295R cells were seeded at 1×10^4 cells/50 μL/well on the 96-well plate containing the compounds added thereto, and cultured for 24 hr in a 5% CO2 incubator at 37° C. The final DMSO concentration in the medium was adjusted to 0.1% (v/v) in all cases, and the concentration range of the compounds was set to 1000 nM to 0.32 nM with a common ratio […]. After the completion of culture, the medium was discarded, 50 μL/well of chilled D-PBS (Sigma Aldrich) was added to wash the cells, and D-PBS was discarded. After washing, 25 μL/well of Cells-to-CT (registered trademark) Bulk Lysis Reagents (Thermo Fisher Scientific, Inc.) was added to the wells, the mixture was stirred for 5 min with a plate mixer, and 2.5 μL/well of the reaction quenching liquid was added to prepare cell lysate. The cell lysate was dispensed into a 96-well plate (Corning) at 10 μL/well, and 40 μL/well of Cells-to-CT Bulk RT Reagents (Thermo Fisher Scientific, Inc.) was added. A reverse transcription reaction was performed at 37° C. for 50 min using a thermal cycler, and the reverse transcriptase was inactivated by heating at 95° C. for 5 min, and then stored at 10° C. PrimeTime (registered trademark) Gene Expression Master Mix (Integrated DNA Technologies), the target genes CYP11A1, CYP17A1, CYP21A2, or STAR, and the control gene ACTB PrimeTime (registered trademark) qPCR Probe Assays (Integrated DNA Technologies), and Nuclease free water were mixed at a ratio of 20:1:1:10 to prepare a PrimerProbe mix. The prepared PrimerProbe mix was added to a 384-well plate at 8 μL/well, and the cDNA obtained by reverse transcription was added at 2 μL/well. Real-Time PCR was performed under fast cycling conditions (95° C. for 3 min, followed by 40 cycles of 95° C. for 5 seconds and 62° C. for 30 seconds) to measure the fluorescent signal. The obtained data was analyzed using GraphPad Prism9 (GraphPad Software Inc.) to calculate the concentration (IC50 value) that reduces the mRNA expression level by 50%. The IC50 values (unit: nM) for CYP11A1, CYP17A1, CYP21A2, and STAR, of the compounds corresponding to each Example number are shown in Table 94.
# STAR = test: Changes in SF1 target gene expression for NCI-H295R: STAR mRNA (qPCR); format: cell-based; conditions: Homo sapiens, NCI-H295R cells, 24 hr
# Protocol: as §1
# SF1-LBD = SF1-LBD (Homo sapiens, UniProt Q13285); test: Inhibitory activity against binding of DAX1 to SF1-LBD (AlphaLISA); conditions: inhibition of binding of DAX1 peptide to His-SF1-LBD, read-out: cell-free SF1 IC50
# Protocol: The binding activity of each compound to the SF-1 ligand binding domain (LBD) was evaluated using the binding inhibitory activity of each compound against binding of DAX1 to SF1-LBD as an index. 100 nM His-SF1-LBD, 2 nM Biotin-DAX1 peptide (Biotin-[…]-NH2) and each compound (8-point i1 dilution series with common ratio 2 from final concentration 2 μM) were mixed in assay buffer [25 mM HEPES (pH 7.5), 100 mM NaCl, 0.1% BSA, 0.01% CHAPS, 1 mM DTT] and reacted at room temperature for 30 min. Anti-6×His AlphaLISA Acceptor beads and Streptavidin-coated AlphaScreen Donor beads were mixed to a final concentrations of 5 μg/ml and 10 μg/ml, respectively, and reacted in the dark at room temperature for 60 min. AlphaLISA signals were detected using a multimode plate reader (EnVision Xcite, PerkinElmer). The binding rate of DAX1 peptide to SF1 was calculated from the luminescence amount (C) of the compound-free group and the luminescence amount (T) of the compound-added group, based on the following formula.
# The DAX1 peptide binding rate at each concentration was analyzed using GraphPad Prism6 (GraphPad Software Inc.) to calculate the concentration (IC50 value) of each compound that inhibits 50% of the binding of DAX1 to SF1-LBD.
# CYP17A1 = test: Changes in SF1 target gene expression for NCI-H295R: CYP17A1 mRNA (qPCR); format: cell-based; conditions: Homo sapiens, NCI-H295R cells, 24 hr
# Protocol: as §1
# CYP21A2 = test: Changes in SF1 target gene expression for NCI-H295R: CYP21A2 mRNA (qPCR); format: cell-based; conditions: Homo sapiens, NCI-H295R cells, 24 hr
# Protocol: as §1
# SF-1 = target: T1, SF-1 (Homo sapiens, UniProt Q13285); test: SF1 degradation induction in NCI-H295R SF-1-HiBiT cells (HiBiT DC50); format: cell-based; conditions: 24 hr, concentration that induces 50% degradation of SF-1
# T1 construct: NCI-H295R SF-1-HiBiT cells with HiBiT tag knocked in at the endogenous SF1 locus; host or cells: NCI-H295R SF-1-HiBiT (knock-in at endogenous locus)
# Method in brief: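 NCI-H295R cells carrying HiBiT-tagged SF-1, plated and grown 24 hr, then exposed to serially diluted compounds for 24 hr at 37° C. Remaining SF-1 read by lytic HiBiT luminescence; degradation rate from treated vs compound-free signal, DC50 as concentration giving 50% degradation.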
# NCI-H295R cells = test: Proliferation inhibitory action on NCI-H295R (CellTiter-Glo, 7 days); format: cell-based, human; conditions: Homo sapiens, NCI-H295R, 168 h
# Method in brief: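 Compounds serially diluted in DMSO; cells seeded at 2×10^3 cells/well and cultured 7 days at 37° C, 5% CO2. CellTiter-Glo 2.0 luminescence read at day 0 and day 7; proliferation rate derived from compound-addition-day signal, untreated day-7 signal and treated day-7 signal.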
# Chain of SF1-LBD (Q13285 222-459 limits assumed): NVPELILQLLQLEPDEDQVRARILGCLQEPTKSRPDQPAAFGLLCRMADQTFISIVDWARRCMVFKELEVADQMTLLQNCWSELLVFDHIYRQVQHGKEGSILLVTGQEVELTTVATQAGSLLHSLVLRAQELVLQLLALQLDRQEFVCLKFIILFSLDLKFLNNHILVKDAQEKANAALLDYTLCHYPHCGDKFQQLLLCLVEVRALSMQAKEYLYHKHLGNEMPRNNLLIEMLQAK
IC50 (CYP11A1),IC50 (STAR),IC50 (SF1-LBD),IC50 (CYP17A1),IC50 (CYP21A2),DC50 (SF-1),GI50 (NCI-H295R cells),Compound
10 nM,54 nM,21 nM,140 nM,24 nM,,,"COc1ccc([C@]2(CCN(Cc3ccc(O[C@H]4CC[C@H](CS(C)(=N)=O)CC4)cc3)C(=O)C(C)(C)C(F)F)CCOC(C)(C)C2)cc1 (single isomer, unassigned) [Example U11, 3,3-Difluoro-N-{2-[(4R)-4-(4-methoxyphenyl)-2,2-dimethyltetrahydro-2H-pyran-4-yl]ethyl}-2,2-dimethyl-N-{4-[(trans-4-{[(R) or (S)—S-methylsulfonimidoyl]methyl}cyclohexyl)oxy]benzyl}propanamide]"
102 nM,159 nM,19 nM,283 nM,142 nM,,,"CC1(C)CC(CCN(Cc2ccc(O[C@H]3CC[C@H](C(=O)O)CC3)cc2)C(=O)C(C)(C)C)(c2ccc(Cl)cc2)CCO1 (stereo partly drawn) [Example A6, Trans-4-(4-{[{2-[4-(4-chlorophenyl)-2,2-dimethyltetrahydro-2H-pyran-4-yl]ethyl)(2,2-dimethylpropanoyl)amino]methyl}phenoxy)cyclohexanecarboxylic acid]"
,,,,,4.9 nM,82 nM,"COc1ccc([C@]2(CCN(Cc3ccc(OC4CC5(CCN(CC(=O)N6CCc7ccc8c(c7C6)n(C)c(=O)n8C6CCC(=O)NC6=O)CC5)C4)cc3)CC(C)(C)C(F)(F)F)CCOC(C)(C)C2)cc1 (stereo partly drawn) [Example AK10, 3-(8-{[2-(4-{[{2-[(4R)-4-(4-Methoxyphenyl)-2,2-dimethyltetrahydro-2H-pyran-4-yl]ethyl}(3,3,3-trifluoro-2,2-dimethylpropyl)amino]methyl}phenoxy)-7-azaspiro[3.5]nonan-7-yl]acetyl}-1-methyl-2-oxo-1,2,6,7,8,9-hexahydro-3H-imidazo[4,5-h]isoquinolin-3-yl)piperidine-2,6-dione]"
,,,,,4.5 nM,83 nM,"COc1ccc([C@]2(CCN(Cc3ccc(OC4CC5(CCN(CC(=O)N6Cc7ccc8c(c7C6)n(C)c(=O)n8C6CCC(=O)NC6=O)CC5)C4)cc3)CC(C)(C)C(F)(F)F)CCOC(C)(C)C2)cc1 (stereo partly drawn) [Example AL4, 3-[7-{[2-(4-{[{2-[(4R)-4-(4-Methoxyphenyl)-2,2-dimethyltetrahydro-2H-pyran-4-yl]ethyl}(3,3,3-trifluoro-2,2-dimethylpropyl)amino]methyl}phenoxy)-7-azaspiro[3.5]nonan-7-yl]acetyl}-1-methyl-2-oxo-1,6,7,8-tetrahydroimidazo[4,5-e]isoindole-3(2H)-yl]piperidine-2,6-dione]"
10 nM,24 nM,20 nM,56 nM,17 nM,,,"CC1(C)CC(CCN(Cc2ccc(O[C@H]3CC[C@H](C(=O)O)CC3)cc2)C(=O)C(C)(C)C)(c2ccc(OC(F)(F)F)cc2)CCO1 (stereo partly drawn) [Example B5, Trans-4-(4-{[(2,2-dimethylpropanoyl) (2-{2,2-dimethyl-4-[4-(trifluoromethoxy)phenyl]tetrahydro-2H-pyran-4-yl}ethyl)amino]methyl}phenoxy)cyclohexanecarboxylic acid]"
7.8 nM,26 nM,< 16 nM,70 nM,13 nM,,,"COc1ccc(C2(CCN(Cc3ccc(O[C@H]4CC[C@H](CC(=O)O)CC4)c(Cl)c3)C(=O)C(C)(C)C)CCOC(C)(C)C2)cc1 (stereo partly drawn) [Example C8, [Trans-4-(2-chloro-4-{[(2,2-dimethylpropanoyl) {2-[4-(4-methoxyphenyl)-2,2-dimethyltetrahydro-2H-pyran-4-yl]ethyl}amino]methyl}phenoxy)cyclohexyl]acetic acid]"
9.8 nM,18 nM,,71 nM,21 nM,,,"COc1ccc([C@]2(CCN(Cc3ccc(C4=CC[C@H](C(=O)O)CC4)c(F)c3)CC(C)(C)C(F)(F)F)CCOC(C)(C)C2)cc1 [Example V5, (4R)-2′-Fluoro-4′-{[{2-[(4R)-4-(4-methoxyphenyl)-2,2-dimethyltetrahydro-2H-pyran-4-yl]ethyl)(3,3,3-trifluoro-2,2-dimethylpropyl)amino]methyl}-2,3,4,5-tetrahydro[biphenyl]-4-carboxylic acid monohydrochloride]"
90 nM,131 nM,,372 nM,138 nM,,,"COc1ccc([C@]2(CCN(Cc3ccc(C4=CC[C@H](CO)CC4)cc3)CC(C)(C)C(F)(F)F)CCOC(C)(C)C2)cc1 [Example W5, [(4R)-4′-{[{2-[(4R)-4-(4-Methoxyphenyl)-2,2-dimethyltetrahydro-2H-pyran-4-yl]ethyl)(3,3,3-trifluoro-2,2-dimethylpropyl)amino]methyl}-2,3,4,5-tetrahydro[biphenyl]-4-yl]methanol]"
511 nM,776 nM,,1230 nM,581 nM,,,"COc1ccc([C@]2(CCN(Cc3ccc(C4=CC[C@H](CN5CCN(C(=O)OC(C)(C)C)CC5)CC4)cc3)CC(C)(C)C(F)(F)F)CCOC(C)(C)C2)cc1 [Example X2, tert-Butyl 4-{[(4R)-4′-{[{2-[(4R)-4-(4-methoxyphenyl)-2,2-dimethyltetrahydro-2H-pyran-4-yl]ethyl)(3,3,3-trifluoro-2,2-dimethylpropyl)amino]methyl}-2,3,4,5-tetrahydro[biphenyl]-4-yl]methyl}piperazine-1-carboxylate]"
,,,,,12 nM,199 nM,"COc1ccc([C@]2(CCN(Cc3ccc(C4=CCC(CC(=O)NCCNc5ccc6c(c5)n(C)c(=O)n6C5CCC(=O)NC5=O)CC4)cc3)CC(C)(C)C(F)(F)F)CCOC(C)(C)C2)cc1 (stereo partly drawn) [Example Y6, N-(2-{[1-(2,6-Dioxopiperidin-3-yl)-3-methyl-2-oxo-2,3-dihydro-1H-benzimidazol-5-yl]amino}ethyl)-2-(4′-{[{2-[(4R)-4-(4-methoxyphenyl)-2,2-dimethyltetrahydro-2H-pyran-4-yl]ethyl}(3,3,3-trifluoro-2,2-dimethylpropyl)amino]methyl}-2,3,4,5-tetrahydro[biphenyl]-4-yl)acetamide]"
,,,,,10 nM,43 nM,"COc1ccc([C@]2(CCN(Cc3ccc(OC4CCN(CC(=O)Nc5cccc6c5n(C)c(=O)n6C5CCC(=O)NC5=O)CC4)cc3)CC(C)(C)C(F)(F)F)CCOC(C)(C)C2)cc1 (stereo partly drawn) [Example Z8, N-[1-(2,6-Dioxopiperidin-3-yl)-3-methyl-2-oxo-2,3-dihydro-1H-benzimidazol-4-yl]-2-[4-(4-{[{2-[(4R)-4-(4-methoxyphenyl)-2,2-dimethyltetrahydro-2H-pyran-4-yl]ethyl)(3,3,3-trifluoro-2,2-dimethylpropyl)amino]methyl}phenoxy)piperidin-1-yl]acetamide]"
